Data reported in ChEMBL document CHEMBL1201862, “PubChem BioAssay data set” (2004).
Active and inactive are the calls of the source.

Assays:
[1] = system: H4; assay: Luminescence Cell-Based Dose Response HTS to Identify Activators of 5'UTR Stem-Loop Driven Prion Protein mRNA Translation in H4 Neuroglioblastoma Cells. [Related pubchem assays: 1829 (Project Summary), 1814 (Primary HTS)]; type: functional; settings: Homo sapiens
[2] = Luminescence Cell-Based Dose Confirmation HTS to Identify Activators of 5'UTR Stem-Loop Driven Alpha-Synuclein mRNA Translation in H4 Neuroglioblastoma Cells. [Related pubchem assays: 1829 (Project Summary), 1814 (Primary HTS)]; type: functional
[3] = viability loss in HeLa cells – cytotoxicity control for MgcRacGAP inhibitor project, dose response (AID 624300); type: functional
[4] = Luminescence Cell-Based Dose Response HTS to Identify Activators of Luciferase Translation or Activity in H4 […] Cells. [Related pubchem assays: 1829 (Project Summary), 1814 (Primary HTS)]; type: functional
[5] = biological target: T1, Rac GTPase-activating protein 1 (Homo sapiens, UniProt Q9H0H5); assay: blockers of MgcRacGAP-driven Rac1 GTP hydrolysis – biochemical, ADP Hunter fluorescence, primary and confirmatory, confirmation (AID 624330); type: functional
T1 sequence (Q9H0H5 whole entry): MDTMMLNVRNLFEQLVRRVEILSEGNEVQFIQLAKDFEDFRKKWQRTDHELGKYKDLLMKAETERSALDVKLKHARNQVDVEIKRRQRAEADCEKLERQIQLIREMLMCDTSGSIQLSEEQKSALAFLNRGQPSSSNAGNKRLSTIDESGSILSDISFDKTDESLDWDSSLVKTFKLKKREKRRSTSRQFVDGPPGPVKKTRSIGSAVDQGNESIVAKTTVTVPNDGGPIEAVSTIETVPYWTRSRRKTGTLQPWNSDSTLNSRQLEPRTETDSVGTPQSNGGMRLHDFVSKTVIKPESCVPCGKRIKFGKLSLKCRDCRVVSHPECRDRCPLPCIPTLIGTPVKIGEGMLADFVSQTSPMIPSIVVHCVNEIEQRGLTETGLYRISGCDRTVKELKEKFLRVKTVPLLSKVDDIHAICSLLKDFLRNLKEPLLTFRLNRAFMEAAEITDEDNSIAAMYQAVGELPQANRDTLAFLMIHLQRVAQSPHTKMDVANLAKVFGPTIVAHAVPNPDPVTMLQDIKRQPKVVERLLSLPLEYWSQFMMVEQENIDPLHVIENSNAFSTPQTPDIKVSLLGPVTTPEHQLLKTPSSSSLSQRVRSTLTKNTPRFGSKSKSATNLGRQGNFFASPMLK

[6] = bead-based luminescence quenchers, dual-tagged ARNT – biochemical, AlphaScreen, cherry-pick, artefact control for ARNT-TACC3 interaction inhibitor project, dose response (AID 651705); type: functional;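 further: AlphaScreen bead proximity signal that flags compounds interfering with the detection technology; potency reflects signal decrease which marks the compound as an assay artifact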
[7] = biological target: T2, Zinc finger protein mex-5 (Caenorhabditis elegans, UniProt Q9XUB2); assay: potency of MEX-5 RNA-binding blockers – biochemical, C. elegans, fluorescence polarization, dose response (AID 1960)
T2 sequence (Q9XUB2 whole entry): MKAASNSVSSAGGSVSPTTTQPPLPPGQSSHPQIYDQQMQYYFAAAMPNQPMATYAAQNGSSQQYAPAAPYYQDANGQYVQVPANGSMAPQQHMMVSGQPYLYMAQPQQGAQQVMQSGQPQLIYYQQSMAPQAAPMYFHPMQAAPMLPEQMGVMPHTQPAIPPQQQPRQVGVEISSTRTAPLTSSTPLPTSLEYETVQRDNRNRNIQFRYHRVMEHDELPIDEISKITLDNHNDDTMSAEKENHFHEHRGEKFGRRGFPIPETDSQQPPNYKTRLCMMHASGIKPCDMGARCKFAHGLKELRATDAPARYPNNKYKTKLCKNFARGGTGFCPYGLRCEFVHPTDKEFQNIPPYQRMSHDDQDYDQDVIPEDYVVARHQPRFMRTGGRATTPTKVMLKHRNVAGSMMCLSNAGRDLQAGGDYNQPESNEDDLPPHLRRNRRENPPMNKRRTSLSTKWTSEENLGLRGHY

[8] = biological target: Arf-GAP with SH3 domain, ANK repeat and PH domain-containing protein 1 (Homo sapiens, UniProt Q9ULH1); type: functional;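 further: biochemical fluorescence polarization dose–response screen measuring inhibition of ASAP1; ASAP1 GAP domain stimulating GTP hydrolysis by truncated human ARF1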
[9] = biological target: T3, RNA-binding protein pos-1 (Caenorhabditis elegans, UniProt G5EF15); assay: disruptors of C. elegans POS-1 RNA interaction – biochemical, fluorescence polarization, dose response (AID 1964);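 further: purified POS-1 fused to maltose binding protein made in E. coli; potency of compounds blocking POS-1 binding to fluorescent RNA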
T3 sequence (G5EF15 whole entry): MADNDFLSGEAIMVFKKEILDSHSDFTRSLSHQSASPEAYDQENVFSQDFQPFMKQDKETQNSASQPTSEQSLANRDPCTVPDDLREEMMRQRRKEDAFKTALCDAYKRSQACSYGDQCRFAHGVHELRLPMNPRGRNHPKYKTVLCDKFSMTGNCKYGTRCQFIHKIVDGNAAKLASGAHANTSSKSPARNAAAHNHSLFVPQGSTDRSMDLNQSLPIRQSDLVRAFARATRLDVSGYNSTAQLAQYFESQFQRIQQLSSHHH

[10] = biological target: Broad substrate specificity ATP-binding cassette transporter ABCG2 (Homo sapiens, UniProt Q9UNQ0); assay: blockers of JC-1 export by ABCG2 – Ig-MXP3 cells, flow cytometry, dose response (AID 1690); type: functional
[11] = biological target: T4, Insulin-degrading enzyme (Homo sapiens, UniProt P14735); assay: cellular IDE activation of Abeta substrate cleavage – fluorescence polarization, HEK cells, dose response (AID 588439); type: functional, cell-based
T4 sequence (P14735 whole entry): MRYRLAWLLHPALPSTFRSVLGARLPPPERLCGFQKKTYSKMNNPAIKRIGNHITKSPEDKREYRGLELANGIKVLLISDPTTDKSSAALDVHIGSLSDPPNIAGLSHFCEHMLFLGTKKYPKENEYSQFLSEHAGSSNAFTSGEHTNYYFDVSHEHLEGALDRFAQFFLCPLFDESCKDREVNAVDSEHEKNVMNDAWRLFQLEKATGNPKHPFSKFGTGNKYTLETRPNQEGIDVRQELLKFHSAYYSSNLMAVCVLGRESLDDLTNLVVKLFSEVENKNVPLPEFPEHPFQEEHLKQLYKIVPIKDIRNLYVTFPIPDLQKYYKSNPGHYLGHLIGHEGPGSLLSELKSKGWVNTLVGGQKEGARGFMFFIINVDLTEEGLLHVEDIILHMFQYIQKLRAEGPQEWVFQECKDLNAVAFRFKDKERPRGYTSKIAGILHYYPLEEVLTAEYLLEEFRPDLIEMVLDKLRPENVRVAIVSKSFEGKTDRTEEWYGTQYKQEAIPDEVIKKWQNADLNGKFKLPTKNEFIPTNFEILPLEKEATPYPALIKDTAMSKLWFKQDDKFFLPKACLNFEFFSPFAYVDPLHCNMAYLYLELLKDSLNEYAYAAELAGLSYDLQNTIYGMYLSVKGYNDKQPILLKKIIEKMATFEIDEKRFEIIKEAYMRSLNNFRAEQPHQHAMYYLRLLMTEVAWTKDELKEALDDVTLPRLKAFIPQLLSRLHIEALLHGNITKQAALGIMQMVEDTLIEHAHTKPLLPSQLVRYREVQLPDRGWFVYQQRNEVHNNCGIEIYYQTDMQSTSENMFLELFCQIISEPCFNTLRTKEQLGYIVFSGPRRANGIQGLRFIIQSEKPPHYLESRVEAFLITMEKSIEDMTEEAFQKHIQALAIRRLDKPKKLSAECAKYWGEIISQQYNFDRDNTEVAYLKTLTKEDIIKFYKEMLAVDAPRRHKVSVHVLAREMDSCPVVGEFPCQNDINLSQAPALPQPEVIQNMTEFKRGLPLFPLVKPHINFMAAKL

[12] = biological target: Beta-lactamase (Salmonella choleraesuis (strain SC-B67), UniProt Q5J463)
[13] = biological target: Beta-lactamase (Pseudomonas aeruginosa, UniProt Q79MP6);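 further: biochemical dose-response test of metallo-beta-lactamase enzyme inhibition, read out by epi-absorbance; purified recombinant IMP-1 metallo-beta-lactamase with nitrocefin as substrate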
[14] = system: HEK293; assay: membrane integrity loss in HEK cells – cell-based, fluorescence, cytotoxicity control for IDE activator project, dose response (AID 588440); type: functional; settings: Homo sapiens;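 further: cytotoxicity by LDH release measuring loss of membrane integrity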
[15] = system: HEK293; assay: optical interference in Abeta FP readout, dose response, artefact control for IDE activator project, biochemical, fluorescence polarization (AID 588442); type: functional, cell-based; settings: Homo sapiens
[16] = biological target: T4, Insulin-degrading enzyme; assay: recombinant IDE activation, cell-free – biochemical, fluorescence polarization, counter-screen for IDE activator project, dose response (AID 588681)
[17] = biological target: Adenosylmethionine-8-amino-7-oxononanoate aminotransferase (Mycobacterium tuberculosis, UniProt P9WQ81); assay: Mycobacterium tuberculosis BioA enzyme inhibitor Measured in Biochemical System Using Plate Reader - 2163-02_Inhibitor_Dose_CherryPick_Activity.; type: functional, Mycobacterium tuberculosis UT205
[18] = biological target: Disintegrin and metalloproteinase domain-containing protein 17 (Homo sapiens, UniProt P78536); assay: inhibition of ADAM17 substrate cleavage – biochemical, quenched FRET substrate, counter-screen for ADAM10 exosite inhibitor project, dose response (AID 743253)
[19] = system: Streptococcus sp. 'group A'; assay: Streptococcus pyogenes SK(-)GAS viability under kanamycin – luminescence, BacTiterGlo, confirmation, counter-screen for streptokinase expression inhibitor project, dose response (AID 1900); type: functional, organism-based
[20] = Luminescence Cell-Based Dose Retest to Confirm Inhibitors of Cancer Stem Cells. [Related pubchem assays (depositor defined):AID2717, AID2721]; type: functional; settings: Homo sapiens
[21] = biological target: DNA (cytosine-5)-methyltransferase 1 (Homo sapiens, UniProt P26358); assay: inhibition of DNA methylation by DNMT1 – biochemical, fluorescent molecular beacon, confirmation (AID 602386); type: functional
[22] = potency of ADAM10 substrate cleavage blockers – biochemical, QFRET, dose response (AID 743254);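 further: ADAM10 enzyme with the DM2 quenched FRET peptide as substrate; EDANS fluorescence gain as the protease cuts the substrate; inhibitor potency against ADAM10 proteolytic activity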
[23] = biological target: Induced myeloid leukemia cell differentiation protein Mcl-1 (Homo sapiens, UniProt Q07820); type: functional
[24] = system: Streptococcus; assay: GAS UMAA2166 growth inhibition – luminescence, BacTiterGlo, counter-screen for streptokinase expression inhibitor project, dose response (AID 1915); type: functional, organism-based;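 further: potency for reduction of bacterial viability or growth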
[25] = biological target: T5, Low molecular weight phosphotyrosine protein phosphatase (Homo sapiens, UniProt P24666); type: functional; settings: read-out: IC50_Mean
T5 sequence (P24666 whole entry): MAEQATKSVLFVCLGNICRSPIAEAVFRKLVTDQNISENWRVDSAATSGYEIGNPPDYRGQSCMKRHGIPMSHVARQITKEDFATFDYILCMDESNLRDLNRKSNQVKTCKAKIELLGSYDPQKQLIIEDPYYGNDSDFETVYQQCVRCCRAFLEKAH

[26] = biological target: T5, Low molecular weight phosphotyrosine protein phosphatase; type: functional; settings: read-out: IC50_Mean; remark: listed apart in the source
[27] = biological target: T6, ATP-dependent translocase ABCB1 (Homo sapiens, UniProt P08183); assay: P-gp JC-1 efflux blockade concentration-response – Jurkat-DNR cells, flow cytometry, set 2, dose response (AID 504569); type: functional; settings: read-out: EC50_MICROM_;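 further: potency of pump inhibitors that raise cellular JC-1 green fluorescence up to the nicardipine level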
[28] = biological target: T6, ATP-dependent translocase ABCB1; assay: inhibition of BCRP-mediated JC-1 efflux – Ig-MXP3 cells, flow cytometry, set 2, dose response (AID 504566); type: functional; settings: read-out: EC50_MICROM_;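 further: flow cytometry median green fluorescence of retained JC-1 dye; potency of efflux pump inhibition measured as rising substrate retention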
[29] = biological target: T7, Sentrin-specific protease 8 (Homo sapiens, UniProt Q96LD8); type: functional
T7 sequence (Q96LD8 whole entry): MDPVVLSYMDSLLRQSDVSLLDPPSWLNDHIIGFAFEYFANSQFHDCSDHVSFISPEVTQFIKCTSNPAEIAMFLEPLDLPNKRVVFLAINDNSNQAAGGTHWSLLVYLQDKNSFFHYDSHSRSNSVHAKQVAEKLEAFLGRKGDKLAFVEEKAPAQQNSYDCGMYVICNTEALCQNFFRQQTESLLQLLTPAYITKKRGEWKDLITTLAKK

[30] = biological target: T7, Sentrin-specific protease 8; type: functional; remark: listed apart in the source
[31] = biological target: Aryl hydrocarbon receptor (Homo sapiens, UniProt P35869); settings: Potency;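 further: confirmatory quantitative high-throughput screen measuring activation of the AhR signaling pathway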
[32] = Vero cell cytotoxicity, cytotoxicity control for M. tuberculosis inhibitor project, purified and synthesized samples, set 3 (AID 504684); type: functional
[33] = system: Vero; assay: cells; type: functional; settings: Chlorocebus sabaeus
[34] = Fluorescence-based cell-based high throughput dose response assay for inhibitors of the interaction of nucleotide-binding oligomerization domain containing 2 (NOD2) and the receptor-interacting serine-threonine kinase 2 (RIPK2).; type: functional; settings: Homo sapiens

T6 sequence (P08183 whole entry): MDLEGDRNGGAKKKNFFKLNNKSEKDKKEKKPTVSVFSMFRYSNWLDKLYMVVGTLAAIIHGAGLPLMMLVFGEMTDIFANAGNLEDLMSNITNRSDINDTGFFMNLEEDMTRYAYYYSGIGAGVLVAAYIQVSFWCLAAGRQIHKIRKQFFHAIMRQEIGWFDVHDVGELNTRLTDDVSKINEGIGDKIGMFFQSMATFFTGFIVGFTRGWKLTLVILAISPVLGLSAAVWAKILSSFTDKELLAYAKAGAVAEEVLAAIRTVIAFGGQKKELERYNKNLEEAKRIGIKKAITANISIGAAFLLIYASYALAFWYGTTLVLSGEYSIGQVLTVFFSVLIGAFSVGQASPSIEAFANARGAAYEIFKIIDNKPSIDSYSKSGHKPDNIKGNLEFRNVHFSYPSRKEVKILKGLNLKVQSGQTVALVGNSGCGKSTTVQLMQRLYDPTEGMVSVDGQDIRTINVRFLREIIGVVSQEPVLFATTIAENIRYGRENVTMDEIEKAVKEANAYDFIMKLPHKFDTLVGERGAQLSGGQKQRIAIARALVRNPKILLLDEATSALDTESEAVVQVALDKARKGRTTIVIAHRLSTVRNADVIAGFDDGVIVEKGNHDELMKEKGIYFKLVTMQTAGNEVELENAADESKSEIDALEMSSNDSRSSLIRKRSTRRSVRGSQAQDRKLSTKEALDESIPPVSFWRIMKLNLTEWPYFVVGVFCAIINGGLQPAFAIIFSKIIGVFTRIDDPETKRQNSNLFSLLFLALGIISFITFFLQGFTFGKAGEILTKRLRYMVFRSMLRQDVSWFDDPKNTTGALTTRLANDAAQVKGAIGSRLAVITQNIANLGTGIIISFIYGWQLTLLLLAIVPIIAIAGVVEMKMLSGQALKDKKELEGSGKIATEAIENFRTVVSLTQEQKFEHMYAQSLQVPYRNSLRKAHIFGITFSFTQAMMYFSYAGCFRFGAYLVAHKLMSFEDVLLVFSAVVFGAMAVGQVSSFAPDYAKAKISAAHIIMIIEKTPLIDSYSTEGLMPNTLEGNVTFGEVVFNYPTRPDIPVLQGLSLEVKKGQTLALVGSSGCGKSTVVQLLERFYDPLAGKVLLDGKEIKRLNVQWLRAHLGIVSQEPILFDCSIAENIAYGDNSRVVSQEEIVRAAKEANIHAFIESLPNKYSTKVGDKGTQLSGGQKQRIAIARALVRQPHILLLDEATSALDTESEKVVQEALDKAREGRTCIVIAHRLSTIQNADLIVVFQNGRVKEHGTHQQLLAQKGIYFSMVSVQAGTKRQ
Sequence of Broad substrate specificity ATP-binding cassette transporter ABCG2 (Q9UNQ0 whole entry): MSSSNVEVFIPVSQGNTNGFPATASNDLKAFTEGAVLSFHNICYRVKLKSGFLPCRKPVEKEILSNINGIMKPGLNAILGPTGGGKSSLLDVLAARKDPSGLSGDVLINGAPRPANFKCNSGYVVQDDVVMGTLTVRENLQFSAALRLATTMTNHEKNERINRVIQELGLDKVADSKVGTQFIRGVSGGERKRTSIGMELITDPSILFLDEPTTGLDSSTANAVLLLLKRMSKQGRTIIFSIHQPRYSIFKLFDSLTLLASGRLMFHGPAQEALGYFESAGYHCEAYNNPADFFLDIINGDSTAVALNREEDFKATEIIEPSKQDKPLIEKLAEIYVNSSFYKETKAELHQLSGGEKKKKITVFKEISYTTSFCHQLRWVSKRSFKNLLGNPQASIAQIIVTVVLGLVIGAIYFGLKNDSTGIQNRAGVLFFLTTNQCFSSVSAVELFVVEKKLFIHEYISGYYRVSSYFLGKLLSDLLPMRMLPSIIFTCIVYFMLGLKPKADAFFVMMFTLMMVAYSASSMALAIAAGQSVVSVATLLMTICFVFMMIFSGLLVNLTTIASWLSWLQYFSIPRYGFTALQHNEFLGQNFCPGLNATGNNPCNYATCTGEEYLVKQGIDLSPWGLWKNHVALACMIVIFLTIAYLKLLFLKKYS
Sequence of Aryl hydrocarbon receptor (P35869 whole entry): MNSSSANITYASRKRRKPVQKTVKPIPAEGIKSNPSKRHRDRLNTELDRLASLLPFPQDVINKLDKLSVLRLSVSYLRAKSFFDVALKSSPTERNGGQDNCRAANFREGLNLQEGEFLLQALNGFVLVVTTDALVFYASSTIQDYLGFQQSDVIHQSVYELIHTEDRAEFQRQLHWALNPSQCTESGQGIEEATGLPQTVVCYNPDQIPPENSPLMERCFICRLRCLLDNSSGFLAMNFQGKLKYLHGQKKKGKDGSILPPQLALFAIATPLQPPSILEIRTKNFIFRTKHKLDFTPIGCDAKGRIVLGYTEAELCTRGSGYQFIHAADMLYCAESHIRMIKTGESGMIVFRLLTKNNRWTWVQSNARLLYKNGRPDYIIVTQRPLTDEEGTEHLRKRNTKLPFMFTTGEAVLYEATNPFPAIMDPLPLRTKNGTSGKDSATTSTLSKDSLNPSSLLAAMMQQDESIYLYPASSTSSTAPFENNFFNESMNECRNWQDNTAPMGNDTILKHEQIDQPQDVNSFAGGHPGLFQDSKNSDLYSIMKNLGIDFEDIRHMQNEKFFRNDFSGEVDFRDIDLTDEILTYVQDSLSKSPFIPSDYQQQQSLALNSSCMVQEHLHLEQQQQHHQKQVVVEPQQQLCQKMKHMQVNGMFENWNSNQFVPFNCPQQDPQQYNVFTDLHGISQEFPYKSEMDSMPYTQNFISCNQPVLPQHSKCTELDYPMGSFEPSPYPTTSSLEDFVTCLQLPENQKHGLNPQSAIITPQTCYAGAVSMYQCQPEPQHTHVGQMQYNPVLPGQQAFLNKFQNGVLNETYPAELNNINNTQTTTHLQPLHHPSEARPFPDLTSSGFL
Sequence of Arf-GAP with SH3 domain, ANK repeat and PH domain-containing protein 1 (Q9ULH1 whole entry, the tested form may be a part): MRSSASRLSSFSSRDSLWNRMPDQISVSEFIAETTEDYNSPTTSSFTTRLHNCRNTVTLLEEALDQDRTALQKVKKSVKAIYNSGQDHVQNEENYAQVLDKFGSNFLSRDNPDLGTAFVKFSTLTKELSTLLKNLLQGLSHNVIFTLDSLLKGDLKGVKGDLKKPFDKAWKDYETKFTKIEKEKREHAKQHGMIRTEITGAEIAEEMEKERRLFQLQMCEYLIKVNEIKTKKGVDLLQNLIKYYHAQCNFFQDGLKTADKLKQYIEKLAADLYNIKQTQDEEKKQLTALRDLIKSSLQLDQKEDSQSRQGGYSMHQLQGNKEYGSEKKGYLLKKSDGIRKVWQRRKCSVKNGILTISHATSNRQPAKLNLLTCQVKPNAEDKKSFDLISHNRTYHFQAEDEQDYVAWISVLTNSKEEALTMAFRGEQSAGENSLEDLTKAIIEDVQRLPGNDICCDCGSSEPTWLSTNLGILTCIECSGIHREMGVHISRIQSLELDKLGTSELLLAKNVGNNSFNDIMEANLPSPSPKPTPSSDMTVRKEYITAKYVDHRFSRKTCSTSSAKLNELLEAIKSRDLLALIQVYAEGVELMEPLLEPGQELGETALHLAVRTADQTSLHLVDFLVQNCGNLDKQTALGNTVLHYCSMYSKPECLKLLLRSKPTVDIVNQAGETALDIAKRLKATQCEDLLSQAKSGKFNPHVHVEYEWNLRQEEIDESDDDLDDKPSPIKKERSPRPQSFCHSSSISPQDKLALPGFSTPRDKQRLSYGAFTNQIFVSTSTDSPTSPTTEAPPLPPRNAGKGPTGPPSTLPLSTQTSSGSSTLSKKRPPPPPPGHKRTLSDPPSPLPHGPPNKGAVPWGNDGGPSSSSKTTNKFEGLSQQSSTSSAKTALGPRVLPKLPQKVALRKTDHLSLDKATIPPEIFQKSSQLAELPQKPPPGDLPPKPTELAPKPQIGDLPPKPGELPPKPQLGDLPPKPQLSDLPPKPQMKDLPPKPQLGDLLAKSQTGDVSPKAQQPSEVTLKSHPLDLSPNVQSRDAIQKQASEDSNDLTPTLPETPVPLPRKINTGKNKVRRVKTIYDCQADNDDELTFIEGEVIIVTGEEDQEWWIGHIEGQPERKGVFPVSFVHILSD
Sequence of Adenosylmethionine-8-amino-7-oxononanoate aminotransferase (P9WQ81 whole entry, the tested form may be a part): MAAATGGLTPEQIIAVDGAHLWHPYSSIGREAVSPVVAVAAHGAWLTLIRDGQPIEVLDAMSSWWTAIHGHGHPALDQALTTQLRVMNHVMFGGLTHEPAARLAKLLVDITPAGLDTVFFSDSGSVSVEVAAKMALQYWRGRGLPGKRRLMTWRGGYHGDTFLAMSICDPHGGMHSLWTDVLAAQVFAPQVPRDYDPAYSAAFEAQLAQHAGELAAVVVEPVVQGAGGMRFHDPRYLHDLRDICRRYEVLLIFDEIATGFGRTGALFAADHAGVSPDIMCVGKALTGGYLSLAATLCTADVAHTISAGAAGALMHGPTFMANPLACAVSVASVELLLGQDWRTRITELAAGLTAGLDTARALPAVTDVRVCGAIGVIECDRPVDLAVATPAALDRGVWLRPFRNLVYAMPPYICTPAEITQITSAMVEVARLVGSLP
Sequence of Induced myeloid leukemia cell differentiation protein Mcl-1 (Q07820 whole entry): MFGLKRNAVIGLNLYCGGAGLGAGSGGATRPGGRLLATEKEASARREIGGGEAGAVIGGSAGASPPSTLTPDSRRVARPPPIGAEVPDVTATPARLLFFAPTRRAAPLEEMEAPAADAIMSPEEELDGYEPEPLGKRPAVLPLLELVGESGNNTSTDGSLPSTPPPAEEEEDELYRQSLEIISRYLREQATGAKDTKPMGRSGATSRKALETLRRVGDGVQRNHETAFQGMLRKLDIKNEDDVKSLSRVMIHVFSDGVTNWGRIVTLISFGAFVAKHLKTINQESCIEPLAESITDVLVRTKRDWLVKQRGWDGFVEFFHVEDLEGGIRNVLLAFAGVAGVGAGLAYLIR
Sequence of Beta-lactamase (Pseudomonas aeruginosa, UniProt Q79MP6) (Q79MP6 whole entry): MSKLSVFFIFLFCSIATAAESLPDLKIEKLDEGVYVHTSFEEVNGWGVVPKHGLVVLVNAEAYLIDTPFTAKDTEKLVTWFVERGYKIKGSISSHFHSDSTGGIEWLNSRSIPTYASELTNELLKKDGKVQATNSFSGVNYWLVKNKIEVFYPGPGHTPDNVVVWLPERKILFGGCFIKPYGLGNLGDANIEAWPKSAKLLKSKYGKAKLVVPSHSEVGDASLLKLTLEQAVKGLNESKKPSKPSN

## COc1ccc(/C=N/Nc2ncnc3sc4c(c23)CCCC4)cc1O
[1]
  EC50: 8.38 µM (active)
[2]
  EC50: 13.4 µM (active)
[3]
  CC50: 70.4 µM (active)
[4]
  EC50: 6.72 µM (active)
[5]
  IC50: 56.1 µM (active)

## O=C(COc1ccccc1)Nc1nnc(-c2ccco2)o1
[6]
  AC50: 95 µM (active)

## Cc1cc(N/C=C2/C(=O)N(c3ccc4c(c3)OCO4)C(=O)c3ccccc32)ccn1
[7]
  EC50: 188 µM (inconclusive)
[8]
  IC50: 22.1 µM (inactive)
[9]
  EC50: 27.5 µM (active)

## CCCCN(C)C1=CC2=CC(=C(C#N)C#N)CCC2CC1 (centres undefined)
[10]
  EC50: 4.42 µM (active)
[11]
  EC50: > 54.7 µM (inactive)
[12]
  IC50: 1.47 µM (active)
[13]
  IC50: 5.07 µM (active)
[14]
  IC50: > 89.2 µM (inactive)
[15]
  EC50: 1.55 µM (active)
[16]
  EC50: > 54.7 µM (inactive)

## CC(=O)c1ccc(NC(=O)COC(=O)Cc2ccsc2)cc1
[17]
  AC50: 6.97 µM (active)

## Cc1ccc(C2C(/C=C3/SC(=S)NC3=O)=C(c3cccs3)Oc3ccccc32)cc1 (centres undefined)
[18]
  IC50: 33.7 µM (inactive)
[19]
  EC50: 0.649 µM (active)
[20]
  AC50: 0.874 µM (active)
[21]
  IC50: 3.74 µM (active)
[22]
  IC50: 16.7 µM (inactive)
[23]
  IC50: 3.63 µM (active)
[24]
  EC50: 1.11 µM (active)

## CCc1nc(N)nc(N)c1-c1ccc(Cl)c(N=[N+]=[N-])c1
[25]
  IC50: 14.3 µM (active)
[26]
  IC50: 24.2 µM (inactive)

## O=C(c1ccoc1)N1CCN(c2cc(-c3ccccc3F)nc3cc(-c4cccc(Cl)c4)nn23)CC1
[27]
  EC50: 5.75 µM (active)
[28]
  EC50: 1.59 µM (active)

## CCOc1cc(C(c2c(C)[nH][nH]c2=O)c2c(C)[nH][nH]c2=O)ccc1OS(=O)(=O)c1ccccc1
[29]
  IC50: 20.9 µM (active)
[30]
  IC50: 33.2 µM (active)

## O=C=Nc1ccc(Cl)c(Cl)c1
[31]
  AC50: 56.2 µM (inconclusive)

## O=C(CSc1nccc(O)n1)Nc1ccc(Oc2ccccc2)cc1
[32]
  CC50: > 100 µM (active)

## O=C1Nc2ccccc2/C1=C\C(=O)c1ccccc1
[33]
  CC50: > 25 µM (active)
[34]
  IC50: 5 µM (active)
